Measured values published in US20170224679A1, “Use of CXCR2 Antagonists For The Prevention and/or Treatment of Chemotherapy Induced Peripheral Neuropathy (CIPN)” (GlaxoSmithKline Intellectual Property Development Limited, priority 2014, published 2017).

Target: T1, CXCR2 receptor (Homo sapiens, UniProt P25025)
T1 sequence (P25025 1-360): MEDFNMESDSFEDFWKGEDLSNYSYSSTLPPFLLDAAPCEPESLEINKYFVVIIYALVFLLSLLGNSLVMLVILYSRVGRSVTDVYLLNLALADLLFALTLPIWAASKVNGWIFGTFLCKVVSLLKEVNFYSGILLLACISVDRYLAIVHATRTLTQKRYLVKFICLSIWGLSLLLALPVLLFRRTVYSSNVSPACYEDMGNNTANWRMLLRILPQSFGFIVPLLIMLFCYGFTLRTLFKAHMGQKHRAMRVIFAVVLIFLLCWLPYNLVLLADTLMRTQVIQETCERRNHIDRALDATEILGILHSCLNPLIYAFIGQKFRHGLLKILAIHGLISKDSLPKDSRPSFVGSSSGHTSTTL
Experiment: Human whole blood assay version ii) (CD11b, GROα stimulated)
Type: cell-based
Parameters: Assay d) measures the cellular functional activity to the native expressed human CXCR2 in whole blood; endogenous in cells; host or cells: human whole blood (neutrophils)
Conditions: 33 nM GROα, neutrophil CD11b, read-out: pIC50 against the CXCR2 receptor (converted)
Method: Blood was withdrawn by venipuncture from consented adults and poured into a Sterilin tube containing an anti-coagulant Heparin (10 μL/mL of blood). All the test compounds were dissolved in DMSO to 4 mM and serial diluted across the plate, 1 in 3 to provide 10 point dose response curves. The compounds were then diluted 100 fold in -PBS [Phosphate buffered saline (without Calcium Chloride and Magnesium Chloride)] after which, 1 μL was dispensed in 96 U bottom Costar plates using an FX. This was done to reduce the final DMSO concentration to 0.25% and for compounds to be screened at 10 uM final assay concentration, after addition of blood.
10 μL of blood was transferred to the compound plate using a multi-channel pipette, gently tapped and incubated for 15 minutes, at 37° C. After 15 minutes, the stimulant GROα was diluted to 100 nM in 0.1% BSA (Albumin Bovine Serum)-PBS and 5 μL is dispensed across the whole plate for a final concentration of 33 nM. The plate was gently tapped and incubated further for 15 minutes at 37° C. […]
Samples were run on a Becton and Dickinson (BD)-Acurri C6 Flow Cytometer using a HyperCyt sampling apparatus (IntelliCyt) with a flow rate 2 μL/sec. CD11 b upregulation is monitored in neutrophils and identified using a combination of both side scatter and CD16 expression.

CN1CCC(C)(S(=O)(=O)c2c(Cl)ccc(NC(=O)Nc3cccc(F)c3Cl)c2O)CC1 [Compound of Formula (D), 1-(4-chloro-3-((1,4-dimethylpiperidin-4-yl)sulfonyl)-2-hydroxyphenyl)-3-(2-chloro-3-fluorophenyl)urea]
IC50: 1580 nM
